Measurements: patent US20190133128A1, “Fungicidal pyridazinones” (FMC Corporation, priority 2017, published 2019)

Legend:
Assay type in all cases: in vivo
Phakopsora pachyrhizi = experiment: Test A: preventive spray on soybean seedlings, Asian soybean rust, visual disease rating; conditions: for pest or weed control at 250 ppm: Phakopsora pachyrhizi
Botrytis cinerea = experiment: Test C: preventive spray on tomato seedlings, gray mold, visual disease rating; conditions: for pest or weed control at 250 ppm: Botrytis cinerea
Source text: (§1) General protocol for preparing test solutions for Tests AG: the test compounds were first dissolved in acetone in an amount equal to 3% of the final volume and then suspended at the desired concentration (in ppm) in acetone and purified water (50/50 mix by volume) containing the surfactant PEG400 (polyhydric alcohol esters). The resulting test suspensions were then used in Tests AG. Compounds were sprayed at a concentration of 250 ppm or other indicated rate to the point of run-off on the test plants. The test solution was sprayed to the point of run-off on tomato seedlings. […] A dash (-) indicates no test results.

Phytophthora infestans = experiment: whole plant or invertebrate; conditions: for Test D disease control rating: tomato seedlings; for pest or weed control at 250 ppm: Phytophthora infestans, in Solanum lycopersicum, read-out: Test D disease control rating
Zymoseptoria tritici = experiment: Test E: preventive spray on wheat seedlings, wheat leaf blotch, visual disease rating; conditions: for pest or weed control at 250 ppm: Zymoseptoria tritici
Source text: as §1, with “wheat” for “tomato”

[1] = system: Puccinia recondita f. sp. tritici; experiment: Test F: preventive spray on wheat seedlings, wheat leaf rust, visual disease rating; conditions: for pest or weed control at 250 ppm: Puccinia recondita
Source text: as §1, with “wheat” for “tomato”, “seedlings. The following day the seedlings were inoculated with a spore suspension of Puccinia recondita f. sp. tritici;” for “seedlings.”

[2] = system: Erysiphe graminis f. sp. tritici; experiment: Test G: preventive spray on wheat seedlings, wheat powdery mildew, visual disease rating; conditions: for pest or weed control at 250 ppm: Blumeria graminis, 192 h
Source text: as §1, with “wheat” for “tomato”

[3] = 250 ppm, 100 = 100% disease control, 0 = no control

Structure (SMILES) | Test A disease control rating (Phakopsora pachyrhizi; [3]) [%] | Test C disease control rating (Botrytis cinerea; [3]) [%] | Test D disease control rating (Phytophthora infestans; [3]) [%] | Test E disease control rating (Zymoseptoria tritici; [3]) [%] | Test F disease control rating [1, 3] [%] | Test G disease control rating [2, 3] [%] | pest or weed control at 250 ppm (Phakopsora pachyrhizi; [3]) [%] | pest or weed control at 250 ppm (Botrytis cinerea; [3]) [%] | pest or weed control at 250 ppm (Phytophthora infestans) [%] | pest or weed control at 250 ppm (Zymoseptoria tritici; [3]) [%] | pest or weed control at 250 ppm [1, 3] [%] | pest or weed control at 250 ppm [2, 3] [%] | also measured
Cn1ncc(O)c(C(=O)Nc2ccc(F)cc2)c1=O [Compound 40] | 56 | 96 | 73 | 96 | 95 | 92 | – | – | – | – | – | – | –
Cn1ncc(Cl)c(C(=O)Nc2ccc(OC(F)(F)F)cc2)c1=O [Compound 41, 5-Chloro-2,3-dihydro-2-methyl-3-oxo-N-[4-(trifluoromethoxy)phenyl]-4-pyridazinecarboxamide] | – | – | – | – | – | – | 87 | 0 | 0 | 97 | 89 | 0 | –
Cn1ncc(Br)c(C(=O)Nc2ccc(OC(F)(F)F)cc2)c1=O [Compound 42, 5-Bromo-2,3-dihydro-2-methyl-3-oxo-N-[4-(trifluoromethoxy)phenyl]-4-pyridazinecarboxamide] | – | – | – | – | – | – | 79 | 0 | 0 | 99 | 86 | 0 | –
Cn1ncc(Cl)c(C(=O)Nc2ccc(F)cc2)c1=O [Compound 43] | 78 | 79 | 68 | 4 | 97 | 0 | – | – | – | – | – | – | –
Cn1ncc(O)c(C(=O)Nc2cccc(-c3ccc(Cl)cc3)c2)c1=O [Compound 44] | 0 | 0 | 0 | 0 | 86 | 0 | – | – | – | – | – | – | –
Cn1ncc(O)c(C(=O)Nc2ccc(-c3ccc(F)cc3)cc2)c1=O [Compound 46] | 77 | 16 | 40 | 0 | 80 | 0 | – | – | – | – | – | – | –
Cn1ncc(O)c(C(=O)Nc2ccc(OC(F)F)cc2)c1=O [Compound 47, N-[4-(Difluoromethoxy)phenyl]-2,3-dihydro-5-hydroxy-2-methyl-3-oxo-4-pyridazinecarboxamide] | – | – | – | – | – | – | 38 | 0 | 88 | 77 | 99 | 0 | –
Cn1ncc(O)c(C(=O)Nc2ccc(S(C)(=O)=O)cc2)c1=O [Compound 49] | 0 | 0 | 0 | 0 | 68 | 0 | – | – | – | – | – | – | –
Cn1ncc(O)c(C(=O)Nc2ccc(C(F)(F)F)cc2F)c1=O [Compound 50, N-[2-Fluoro-4-(trifluoromethyl)phenyl]-2,3-dihydro-5-hydroxy-2-methyl-3-oxo-4-pyridazinecarboxamide] | – | – | – | – | – | – | 0 | 85 | 99 | 98 | 100 | 98 | –
Cn1ncc(Cl)c(C(=O)Nc2ccc(OC(F)(F)F)cc2F)c1=O [Compound 51] | – | – | – | – | – | – | – | – | – | – | – | – | Test A disease control rating (Phakopsora pachyrhizi; 125 ppm): 99%; Test C disease control rating (Botrytis cinerea; 125 ppm): 97%; Test D disease control rating (Phytophthora infestans; 125 ppm): 57%; Test E disease control rating (Zymoseptoria tritici; 125 ppm): 89%; Test F disease control rating ([1]; 125 ppm): 96%; Test G disease control rating ([2]; 125 ppm): 0%
Cn1ncc(Cl)c(C(=O)Nc2ccc(C(F)(F)F)cc2F)c1=O [Compound 52] | – | – | – | – | – | – | – | – | – | – | – | – | Test A disease control rating (Phakopsora pachyrhizi; 160 ppm): 97%; Test C disease control rating (Botrytis cinerea; 160 ppm): 59%; Test D disease control rating (Phytophthora infestans; 160 ppm): 90%; Test E disease control rating (Zymoseptoria tritici; 160 ppm): 99%; Test F disease control rating ([1]; 160 ppm): 99%; Test G disease control rating ([2]; 160 ppm): 39%
